Assays:
Assay type in all cases: cell-based
[1] = test system: Huh7, SNB19, UACC62, MDA-MB-231, KATO III cancer cell lines; assay: SRB cell proliferation, NPM and etomoxir, cancer cell lines; conditions: 25 μM NPM alone, 24 hours; cancer cell lines other than SNB19
[2] = test system: IMR90 cells (normal control, lung fibroblasts); assay: SRB cell proliferation with PSA, IMR90; conditions: normal cell line, PSA 2, 4, 6, 8 or 10 mM, 48 hours
[3] = test system: UACC62 cells (melanoma cell line); assay: Intracellular ATP level with PSA or PA, UACC62; conditions: 2, 4, 6, 8 or 10 mM, 48 hours; compared to an untreated control
Description: (§1) Specifically, A549 cells, IMR90 cells, H23 cells, H226 cells, H522 cells, and EKVX cells, which are lung cancer cell lines; and UACC62 cells, MALME-3M cells, A357 cells, M14 cells, and UACC257 cells, which are melanoma cell lines, were separately cultured. […] for 48 hours, and then intracellular ATP levels were examined using an ATP colorimetric/fluorometric analysis kit (BioVision, Milpitas, Calif., USA) in accordance with the manufacturer's protocol. The incubated cells were divided into groups of 1×10^6 cells, 100 μl of an ATP assay buffer was added thereto to lyse the cells, followed by centrifugation at 15,000×g and 4° C. for 2 minutes to separate only the supernatant. 2 μl to 50 μl of the separated supernatant was transferred to a 96-well plate, and then an ATP assay buffer was added thereto to a final volume of 50 μl per well. […] After mixing, the plate was maintained in a dark room at room temperature for 30 minutes, and then absorbance was measured at 570 nm using a microplate reader. To compare relative ATP levels among the measured values, an absorbance value for cancer cells to which gossypol and phenformin were not added was set as a reference, and relative absorbance values of the cases in which cancer cells were treated with each drug were compared, to compare ATP levels in the cells. […]

[4] = test system: A549 cells (lung cancer cell line); assay: SRB cell proliferation with PSA, A549; conditions: PSA 2, 4, 6, 8 or 10 mM, 48 hours
Description: (§2) Specifically, A549 cells, H522 cells, H226 cells, H23 cells, and EKVX cells, which are lung cancer cell lines; and UACC62 cells, UACC257 cells, A375 cells, SK-MEL-5 cells, and MALME-3M cells, which are melanoma cell lines, were separately cultured. The respective cells were cultured at a […] dose and inoculated in a 96-well plate at a concentration ranging from 5,000 cells/ml to 20,000 cells/ml according to the doubling time of each cell line. […] After completion of the culturing, to perform SRB analysis, a cooled 50% aqueous TCA solution was added to each well to a final concentration of 10% and the cells were incubated in a 4° C. refrigerated state for 60 minutes and then fixed. After incubation, the supernatant was removed, washed five times with tap water, and dried. A 1% acetic acid aqueous solution containing 0.4% sulforhodamine B was added to the dried sample in each well and maintained at room temperature for 10 minutes to stain the cells. After staining, the dye which was not used for staining was removed by washing with a 1% acetic acid solution, and then the plate was dried again. The dye which was used for staining was dissolved in a 10 mM Trisma base solution, and then absorbance was measured at 515 nm.
(§3) Specifically, A549 cells (lung cancer cell line), UACC62 cells (melanoma cell line), and IMR90 cells (normal control, lung fibroblasts) were separately cultured. […]

[5] = test system: A549 cells (lung cancer cell line); assay: Intracellular ATP level with PSA or PA, A549; conditions: 2, 4, 6, 8 or 10 mM, 48 hours; compared to an untreated control
Description: as §1

[6] = test system: UACC62 cells (melanoma cell line); assay: SRB cell proliferation with PSA, UACC62; conditions: PSA 2, 4, 6, 8 or 10 mM, 48 hours
Description: as §2, §3

[7] = test system: A549 cells; assay: Cell apoptosis (Annexin V-FITC/PI flow cytometry), A549; conditions: single drug alone (4 mM PSA or PA; 10 μM gossypol), 48 hours
Description: (§4) First, A549 cells, UACC62 cells, and IMR90 cells, as a normal control, were cultured. The cultured cells were treated with a drug mixture of a 4 mM […] inhibitor (PSA or PA), which is an MAS inhibitor, and 10 μM gossypol or with only one of the drugs and cultured in the same manner as described above for 48 hours. The medium was removed from the cultured cells, followed by washing the cells twice with cold PBS and centrifugation at 1,400 rpm for 3 minutes, and a binding buffer was added thereto so that concentration was 1×10^6 cells/[…]. Then, a […] buffer was transferred to a 5-mL culture tube and 5 μl of each of Annexin V-FITC and propidium iodine (PI) was added thereto. Mixing was performed by slowly vortexing the tube, and then the cells were incubated in a dark room at room temperature for 15 minutes. After incubation, a binding buffer (400 μl) was added thereto and the degree of increase in cell apoptosis was examined by a flow cytometer.

[8] = test system: IMR90 cells (normal control); assay: Mitochondrial membrane potential (TMRE), IMR90; conditions: single drug alone (4 mM PSA or PA; 10 μM gossypol), 48 hours
Description: (§5) Specifically, A549 cells, UACC62 cells, and IMR90 cells, as a normal control, were cultured. The respective cultured cells were treated with a drug mixture of 4 mM of an SLC25A11 inhibitor (PSA or PA), which is an MAS inhibitor, and 10 μM gossypol or with only one of the drugs and cultured in the same manner as described above for 48 hours, and then each cell culture solution was dispensed into chamber slides (for fluorescence microscopy) or a 6-well plate (for flow cytometry). The dispensed culture solution was treated with 100 nM tetramethylrodamine ester (TMRE) as a fluorescent probe and a reaction was allowed to occur therebetween for 20 minutes. After the reaction, the cells were washed with cooled PBS, and the fluorescence development of the cells was measured using a Zeiss LSM510 fluorescence microscope (Carl Zeiss, Oberkochen, Baden-Wurttemberg, Germany). In addition, fluorescence intensity was analyzed in a flow cytometer using a 585 nm (FL-2) channel.

[9] = test system: A549 cells; assay: Mitochondrial membrane potential (TMRE), A549; conditions: 10 μM gossypol alone, 48 hours
Description: as §5

[10] = test system: IMR90 cells (normal control); assay: Cell apoptosis (Annexin V-FITC/PI flow cytometry), IMR90; conditions: single drug alone (4 mM PSA or PA; 10 μM gossypol), 48 hours
Description: as §4

[11] = test system: EKVX, A549, HOP-62 (lung cancer) and UACC62, UACC257, A375 (melanoma) cells; assay: SRB cell proliferation, MAS inhibitor and gossypol, cancer cell lines; conditions: 48 hours
[12] = test system: UACC62 cells; assay: Cell apoptosis (Annexin V-FITC/PI flow cytometry), UACC62; conditions: single drug alone (4 mM PSA or PA; 10 μM gossypol), 48 hours
Description: as §4

[13] = test system: cancer cell lines; assay: Intracellular ATP level, MAS inhibitor and gossypol, cancer cell lines; conditions: 10 μM gossypol alone vs 4 mM PSA or PA alone, 48 hours
Description: as §1, with “[…],” for “an absorbance value for cancer cells to which gossypol and phenformin were not added was set as a reference,”

## O=C1C=CC(=O)N1c1ccc2ccc3cccc4ccc1c2c34 [NPM, N-(1-pyrenyl)maleimide]
[1]
  effect of inhibiting cancer cell proliferation: could be exhibited

## O=C(O)CC(C(=O)O)c1ccccc1 (stereo not shown) [PSA, phenyl succinic acid]
[2]
  cell proliferation: not significantly inhibited
[3]
  intracellular ATP levels: reduced
[4]
  level of cancer cell line proliferation: reduced in a manner dependent upon the concentration of added PSA
[5]
  intracellular ATP levels: reduced
[6]
  level of cancer cell line proliferation: reduced in a manner dependent upon the concentration of added PSA

## Cc1cc2c(C(C)C)c(O)c(O)c(C=O)c2c(O)c1-c1c(C)cc2c(C(C)C)c(O)c(O)c(C=O)c2c1O [gossypol]
[7]
  cell apoptosis: insignificant extent
[8]
  mitochondrial membrane potential: no significant change
[9]
  mitochondrial membrane potential: significant decrease
[10]
  cell apoptosis: no significant cell apoptosis
[11]; 10 μM gossypol alone vs 25 μM NPM
  effect of inhibiting a cell proliferation level, gossypol alone versus NPM alone: more significantly exhibited
[11]; 10 μM gossypol alone vs 4 mM PSA or PA alone
  reduction in the cell proliferation level, gossypol alone versus PSA or PA alone: more prominent
[12]
  cell apoptosis: insignificant extent
[13]
  intracellular ATP production level, difference between gossypol alone and PSA or PA alone: no significant difference

## O=C(O)C(=O)c1ccccc1C(=O)O [PA, phthalonic acid]
[3]
  intracellular ATP levels: reduced
[5]
  intracellular ATP levels: reduced

Source: patent publication US20200263184A1, “PHARMACEUTICAL COMPOSITION FOR PREVENTING AND TREATING CANCER, CONTAINING MALATE-ASPARTATE SHUTTLE INHIBITOR AND ANTICANCER DRUG AS ACTIVE INGREDIENTS” (NATIONAL CANCER CENTER, priority 2017, published 2020)
